Data as given in PubChem BioAssay AID248 (DTP/NCI, 2004).
“And” between values parts separate entries of the source, which are not always exact repeats. Identical values can stand only once. Inconclusive results and toxic doses are left out. No stated cut-off is given here; in the data, active means T/C of 150% or more; inactive means T/C below 125%.

Test system: L1210 leukemia ip in BDF1 mice, survival T/C
Experiment: NCI In Vivo Anticancer Drug Screen. Data for tumor model L1210 Leukemia (intraperitoneal) in B6D2F1 (BDF1) mice
Settings: endpoint: mean survival time, higher = longer survival
Method in brief: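 Each compound was tested against a transplantable tumor grown in mice. The endpoint was survival, with treated animals benchmarked against vehicle controls as a simple ratio.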

[1] = dose: 50.0 mg/kg/injection, schedule: Q01DX001 (ip), vehicle: carboxymethylcellulose (CMC)
[2] = dose: 100.0 mg/kg/injection, schedule: Q01DX001 (ip), vehicle: saline
[3] = dose: 200.0 mg/kg/injection, schedule: Q01DX001 (ip), vehicle: saline
[4] = dose: 100.0 mg/kg/injection, schedule: Q01DX009 (ip), vehicle: saline
[5] = dose: 200.0 mg/kg/injection, schedule: Q01DX009 (ip), vehicle: saline
[6] = dose: 400.0 mg/kg/injection, schedule: Q01DX009 (ip), vehicle: saline
[7] = dose: 400.0 mg/kg/injection, schedule: Q01DX001 (ip), vehicle: saline
[8] = dose: 100.0 mg/kg/injection, schedule: Q04DX003 (ip), vehicle: saline
[9] = dose: 200.0 mg/kg/injection, schedule: Q04DX003 (ip), vehicle: saline
[10] = dose: 400.0 mg/kg/injection, schedule: Q04DX003 (ip), vehicle: saline
[11] = dose: 25.0 mg/kg/injection, schedule: Q04DX002 (ip), vehicle: saline with Tween-80
[12] = dose: 50.0 mg/kg/injection, schedule: Q04DX002 (ip), vehicle: saline with Tween-80
[13] = dose: 100.0 mg/kg/injection, schedule: Q04DX002 (ip), vehicle: saline with Tween-80
[14] = dose: 200.0 mg/kg/injection, schedule: Q04DX002 (ip), vehicle: saline with Tween-80
[15] = dose: 100.0 mg/kg/injection, schedule: Q01DX009 (ip), vehicle: saline with Tween-80
[16] = dose: 100.0 mg/kg/injection, schedule: Q04DX003 (ip), vehicle: saline with Tween-80
[17] = dose: 200.0 mg/kg/injection, schedule: Q01DX009 (ip), vehicle: saline with Tween-80
[18] = dose: 200.0 mg/kg/injection, schedule: Q04DX003 (ip), vehicle: saline with Tween-80
[19] = dose: 400.0 mg/kg/injection, schedule: Q01DX009 (ip), vehicle: saline with Tween-80
[20] = dose: 400.0 mg/kg/injection, schedule: Q04DX003 (ip), vehicle: saline with Tween-80
[21] = dose: 75.0 mg/kg/injection, schedule: Q01DX001 (ip), vehicle: saline
[22] = dose: 150.0 mg/kg/injection, schedule: Q01DX001 (ip), vehicle: saline
[23] = dose: 100.0 mg/kg/injection, schedule: Q04DX003 (ip), vehicle: Klucel (hydroxypropylcellulose) (HPC)
[24] = dose: 200.0 mg/kg/injection, schedule: Q04DX003 (ip), vehicle: Klucel (hydroxypropylcellulose) (HPC)
[25] = dose: 400.0 mg/kg/injection, schedule: Q04DX003 (ip), vehicle: Klucel (hydroxypropylcellulose) (HPC)

Measured: T/C

O=NN(CCI)C(=O)NCCI
inactive: dose: 18.75 mg/kg/injection, schedule: Q01DX001 (ip), vehicle: carboxymethylcellulose (CMC) 96 % of control | dose: 37.5 mg/kg/injection, schedule: Q01DX001 (ip), vehicle: carboxymethylcellulose (CMC) 98 % of control | [1] 96 % of control | dose: 75.0 mg/kg/injection, schedule: Q01DX001 (ip), vehicle: carboxymethylcellulose (CMC) 100 % of control | [2] 103 % of control | [3] 110 % of control

CCN(CC)CC(=O)NCC(C)(CCN1CCOCC1)c1cccc2ccccc12 (centres undefined)
inactive: [4] 105 % of control | [5] 105 % of control | [6] 110 % of control

CCCCCCCCCCCCCCCCCCNC(=S)Nc1ccc(S(=O)(=O)c2ccc(NC(=S)NCCCCCCCCCCCCCCCCCC)cc2)cc1
inactive: dose: 50.0 mg/kg/injection, schedule: Q01DX001 (ip), vehicle: saline 98 % of control | [2] 87 % of control | [7] 106 % of control

COc1ccc(C(=O)N/N=C/c2ccc(NC(C)=O)cc2)cc1
inactive: dose: 100.0 mg/kg/injection, schedule: Q04DX002 (ip), vehicle: Klucel (hydroxypropylcellulose) (HPC) 100 % of control | dose: 200.0 mg/kg/injection, schedule: Q04DX002 (ip), vehicle: Klucel (hydroxypropylcellulose) (HPC) 96 % of control | dose: 400.0 mg/kg/injection, schedule: Q04DX002 (ip), vehicle: Klucel (hydroxypropylcellulose) (HPC) 115 % of control

CC(=O)/C(C1=NCCC1)=C(/C)O
inactive: [8] 92 % of control | [9] 98 % of control | [10] 98 % of control

O=S(=O)(F)c1ccc(S)c(Cl)c1Cl
inactive: [11] 102 % of control | [12] 91 % of control | [13] 89 % of control

COc1cc(C=Nc2ccc(Cl)cc2)ccc1OC(=O)c1ccccc1
inactive: [13] 91 % of control | [14] 87 % of control

O=P(CCCl)(OCCCl)N1CCCCC1 (centres undefined)
inactive: dose: 50.0 mg/kg/injection, schedule: Q04DX003 (ip), vehicle: saline 104 % of control | [4] 93 % of control | [8] 104 % of control | [5] 96 % of control | [9] 102 % of control | [6] 88 % of control | [10] 98 % of control

Fc1ccc(C=Nc2cccc(Cl)c2)cc1
inactive: [15] 95 % of control | [16] 103 % of control | [17] 97 % of control | [18] 93 % of control | [19] 100 % of control | [20] 98 % of control

O=C(O)c1c(-c2nccc3ccccc23)[nH]c(-c2ccccc2)c1S(=O)(=O)O
inactive: [21] 103 % of control | [22] 101 % of control

O=C1c2cccc3cc([N+](=O)[O-])cc(c23)C(=O)N1O
inactive: [2] 101 % of control | [3] 97 % of control | [7] 107 % of control

CSc1nc(N(C)C)c2[nH]c(C)nc2n1
inactive: [2] 87 % of control | [3] 101 % of control

COc1ccc(N(C=O)N=O)cc1
inactive: dose: 75.0 mg/kg/injection, schedule: Q01DX001 (ip), vehicle: other 90 % of control | dose: 150.0 mg/kg/injection, schedule: Q01DX001 (ip), vehicle: other 93 % of control

Cc1cc(-c2ccc(NC(=O)N(C)C)c(C)c2)ccc1NC(=O)N(C)C
inactive: [13] 100 % of control | [14] 114 % of control | dose: 400.0 mg/kg/injection, schedule: Q04DX002 (ip), vehicle: saline with Tween-80 96 % of control

O=C1c2cccc3cccc(c23)C(=O)N1CCCCCCCCCCN1C(=O)c2cccc3cccc(c23)C1=O
inactive: dose: 50.0 mg/kg/injection, schedule: Q01DX009 (ip), vehicle: gum acacia 93 % of control | dose: 100.0 mg/kg/injection, schedule: Q01DX009 (ip), vehicle: gum acacia 94 % of control and 89 % of control | dose: 100.0 mg/kg/injection, schedule: Q04DX003 (ip), vehicle: gum acacia 93 % of control | dose: 200.0 mg/kg/injection, schedule: Q04DX003 (ip), vehicle: gum acacia 86 % of control | dose: 400.0 mg/kg/injection, schedule: Q01DX009 (ip), vehicle: gum acacia 89 % of control | dose: 400.0 mg/kg/injection, schedule: Q04DX003 (ip), vehicle: gum acacia 90 % of control

CN(C)c1ccc(CN2CCCN(Cc3ccc(N(C)C)cc3)C2c2ccccc2O)cc1
inactive: [15] 100 % of control | [23] 97 % of control | [17] 107 % of control | [24] 100 % of control | [19] 106 % of control | [25] 97 % of control

CC(C)C(C=O)(CCN1CCCCC1)c1cccc2ccccc12 (centres undefined)
inactive: [11] 98 % of control | [12] 98 % of control | [13] 88 % of control

CCC(=O)Nc1ccccc1
inactive: dose: 100.0 mg/kg/injection, schedule: Q01DX009 (ip), vehicle: Klucel (hydroxypropylcellulose) (HPC) 101 % of control | [23] 100 % of control | dose: 200.0 mg/kg/injection, schedule: Q01DX009 (ip), vehicle: Klucel (hydroxypropylcellulose) (HPC) 95 % of control | [24] 104 % of control | dose: 400.0 mg/kg/injection, schedule: Q01DX009 (ip), vehicle: Klucel (hydroxypropylcellulose) (HPC) 108 % of control | [25] 114 % of control

CCCCC(=O)N(CC)CC
inactive: dose: 100.0 mg/kg/injection, schedule: Q01DX001 (ip), vehicle: acetone 97 % of control | dose: 200.0 mg/kg/injection, schedule: Q01DX001 (ip), vehicle: acetone 97 % of control

CC(=O)n1cc(C2CC(=O)OC3=C2C(=O)CCC3)c2ccccc21 (centres undefined)
inactive: [15] 93 % of control | [16] 89 % of control | [17] 93 % of control | [18] 89 % of control | [19] 97 % of control | [20] 91 % of control

Cc1c(C(C)(C)c2ccccc2)n(C)c2ccc(C(C)(C)c3ccccc3)cc12
inactive: dose: 50.0 mg/kg/injection, schedule: Q01DX001 (ip), vehicle: other 91 % of control | dose: 100.0 mg/kg/injection, schedule: Q01DX001 (ip), vehicle: other 91 % of control | dose: 200.0 mg/kg/injection, schedule: Q01DX001 (ip), vehicle: other 96 % of control | dose: 400.0 mg/kg/injection, schedule: Q01DX001 (ip), vehicle: other 93 % of control

C/C=C/C=C/C(=O)N(C)c1ccccc1
inactive: [1] 111 % of control | dose: 100.0 mg/kg/injection, schedule: Q01DX001 (ip), vehicle: carboxymethylcellulose (CMC) 103 % of control | dose: 200.0 mg/kg/injection, schedule: Q01DX001 (ip), vehicle: carboxymethylcellulose (CMC) 103 % of control | dose: 400.0 mg/kg/injection, schedule: Q01DX001 (ip), vehicle: carboxymethylcellulose (CMC) 100 % of control

O=C(Nc1ccc(OP(=O)(O)O)cc1)c1ccc(C(=O)Nc2ccc(OP(=O)(O)O)cc2)cc1
inactive: dose: 2.5 mg/kg/injection, schedule: Q01DX Z (ip), vehicle: water 96 % of control | dose: 5.0 mg/kg/injection, schedule: Q01DX Z (ip), vehicle: water 104 % of control | dose: 7.5 mg/kg/injection, schedule: Q01DX Z (ip), vehicle: water 93 % of control | dose: 10.0 mg/kg/injection, schedule: Q01DX Z (ip), vehicle: water 93 % of control | dose: 18.7 mg/kg/injection, schedule: Q01DX Z (ip), vehicle: water 104 % of control

CCOC(=O)C(CO)NS(=O)(=O)c1ccc(C)cc1 (centres undefined)
inactive: [21] 103 % of control | dose: 75.0 mg/kg/injection, schedule: Q04DX003 (ip), vehicle: saline 102 % of control | [22] 106 % of control | dose: 150.0 mg/kg/injection, schedule: Q04DX003 (ip), vehicle: saline 103 % of control | dose: 300.0 mg/kg/injection, schedule: Q01DX001 (ip), vehicle: saline 103 % of control | dose: 300.0 mg/kg/injection, schedule: Q04DX003 (ip), vehicle: saline 97 % of control

O=C1CC(CO)CN1CCc1ccccc1 (centres undefined)
inactive: [16] 96 % of control | [18] 94 % of control | [20] 96 % of control
